The source made the active and inactive calls. The rule behind the calls is not given here.
Legend:
[1] = Stability in human liver microsomes assessed as […] at 1 uM measured for 60 mins in presence of NADPH by LC-MS/MS analysis; assay type: ADME, Microsome; conditions: read-out: QH
Mus musculus [2] = assay: Effect on Gadd45b mRNA level in liver of diet-induced obese C57BL/6 mouse model harboring AMPKalpha LS-/- at 200 mg/kg, po for 4 weeks by GO analysis; assay type: functional, organism-based
Syrian golden hamster [3] = assay: Lipid lowering effect on high-fat diet-fed golden hamster harboring LDLR-/- assessed as decrease in serum LDL-C level at 200 mg/kg, po qd administered via gavage measured after 8 weeks relative to control; assay type: functional, Mesocricetus auratus; parameters: scale not given: the % may be the effect or the level left
Rhesus monkey = assay: Lipid lowering effect in Rhesus monkey assessed as decrease in serum LDL-C level at 35 mg/kg, NG qd treated for 35 days followed by drug washout for 14 days relative to control; assay type: functional, Macaca mulatta; parameters: scale not given: the % may be the effect or the level left; conditions: time 35 day
Mus musculus [4] = assay: Downregulation of Dnajb9 mRNA level in liver of high-fat diet-fed C57BL/6 mouse model at 200 mg/kg, po for 4 weeks by GO analysis; assay type: functional, organism-based
Mus musculus [5] = assay: Effect on Dnajb9 mRNA level in liver of diet-induced obese C57BL/6 mouse model harboring AMPKalpha LS-/- at 200 mg/kg, po for 4 weeks by GO analysis; assay type: functional, organism-based
[6] = Cmax in male Rhesus monkey at 70 mg/kg, po or 7 mg/kg, iv measured for 36 hrs by LC-tandem MS analysis; assay type: ADME, organism-based, Macaca mulatta; conditions: in vivo
Syrian golden hamster [7] = assay: Effect on serum TG level in high-fat diet-fed golden hamster harboring LDLR-/- at 50 to 200 mg/kg, po qd administered via gavage measured after 8 weeks; assay type: functional, organism-based; conditions: Mesocricetus auratus, dose 50-200 mg/kg
Mus musculus [8] = assay: Downregulation of Ctgf mRNA level in liver of high-fat diet-fed C57BL/6 mouse model at 200 mg/kg, po for 4 weeks by GO analysis; assay type: functional, organism-based
[9] = Acute toxicity in golden hamster administered orally measured for 14 days; parameters: species or system Mesocricetus auratus; conditions: in vivo, route po, time 14 day
Mus musculus [10] = assay: Downregulation of Ptafr mRNA level in liver of high-fat diet-fed C57BL/6 mouse model at 200 mg/kg, po for 4 weeks by GO analysis; assay type: functional, organism-based
Mus musculus [11] = assay: Effect on Hspa5 mRNA level in liver of diet-induced obese C57BL/6 mouse model harboring AMPKalpha LS-/- at 200 mg/kg, po for 4 weeks by GO analysis; assay type: functional, organism-based
[12] = Oral bioavailability in female Rhesus monkey at 70 mg/kg measured for 36 hrs by LC-tandem MS analysis; assay type: ADME, organism-based, Macaca mulatta; conditions: in vivo
Mus musculus [13] = assay: Upregulation of Lepr mRNA level in liver of high-fat diet-fed C57BL/6 mouse model at 200 mg/kg, po for 4 weeks by GO analysis; assay type: functional, organism-based
[14] = Stability in human Caco-2 cells assessed as compound remaining at 10 ug/ml measured after 2 hrs by LC-MS/MS analysis; assay type: ADME, cell-based; conditions: at 10 µg/mL, read-out: Stability
Mus musculus [15] = assay: Effect on Mogat1 mRNA level in liver of diet-induced obese C57BL/6 mouse model harboring AMPKalpha LS-/- at 200 mg/kg, po for 4 weeks by GO analysis; assay type: functional, organism-based
Syrian golden hamster [16] = assay: Lipid lowering effect on high-fat diet-fed golden hamster assessed as decrease in serum TC level administered orally once daily via gavage measured after 4 weeks; assay type: functional, organism-based; conditions: Mesocricetus auratus, dose 50-200 mg/kg, route po
Mus musculus [17] = assay: Effect on Cidea mRNA level in liver of diet-induced obese C57BL/6 mouse model harboring AMPKalpha LS-/- at 200 mg/kg, po for 4 weeks by GO analysis; assay type: functional, organism-based
[18] = Efflux ratio of apparent permeability across basal to apical side over apical to basal side in human Caco-2 cells at 21 uM incubated for 2 hrs by LC-MS/MS analysis; assay type: ADME, cell-based
Syrian golden hamster [19] = assay: Lipid lowering effect on high-fat diet-fed golden hamster assessed as decrease in serum TG level administered orally once daily via gavage measured after 4 weeks measured after 4 weeks; assay type: functional, organism-based; conditions: Mesocricetus auratus, dose 50-200 mg/kg, route po
Syrian golden hamster [20] = assay: Lipid lowering effect on high-fat diet-fed golden hamster assessed as decrease in TC level in liver at 100 to 200 mg/kg, po qd administered via gavage measured after 4 weeks; assay type: functional, organism-based; conditions: Mesocricetus auratus, dose 100-200 mg/kg
Mus musculus [21] = assay: Downregulation of Cidea mRNA level in liver of high-fat diet-fed C57BL/6 mouse model at 200 mg/kg, po for 4 weeks by GO analysis; assay type: functional, organism-based
Mus musculus [22] = assay: Effect on Pparg mRNA level in liver of diet-induced obese C57BL/6 mouse model harboring AMPKalpha LS-/- at 200 mg/kg, po for 4 weeks by GO analysis; assay type: functional, organism-based
Mus musculus [23] = assay: Effect on Lepr mRNA level in liver of diet-induced obese C57BL/6 mouse model harboring AMPKalpha LS-/- at 200 mg/kg, po for 4 weeks by GO analysis; assay type: functional, organism-based

SMILES: CC(=O)OC[C@H]1O[C@@H](n2cnc3c(Nc4cccc(O)c4)ncnc32)[C@H](OC(C)=O)[C@@H]1OC(C)=O
- hepatic extraction ratio at 1 h, 1 µM [1]: > 0.7
- Activity (Mus musculus [2]): inactive
- Activity (Syrian golden hamster [3]): 43.1%
- Activity (Rhesus monkey): 4.83%
- Activity (Mus musculus [4]): Active
- Activity (Mus musculus [5]): inactive
- Cmax [6]: 20.4 ng/mL
- Activity (Syrian golden hamster [7]): inactive
- Activity (Mus musculus [8]): Active
- LD50 at 336 h [9]: > 20000 mg/kg
- Activity (Mus musculus [10]): Active
- Activity (Mus musculus [11]): inactive
- bioavailability [12]: 3.75%
- Activity (Mus musculus [13]): Active
- remaining at 2 h, 10 ug/ml [14]: 63%
- Activity (Mus musculus [15]): inactive
- Activity (Syrian golden hamster [16]): Dose-Dependent Effect
- Activity (Mus musculus [17]): inactive
- efflux ratio at 2 h, 21 µM [18]: 1.9
- Activity (Syrian golden hamster [19]): Dose-Dependent Effect
- Activity (Syrian golden hamster [20]): Active
- Activity (Mus musculus [21]): Active
- Activity (Mus musculus [22]): inactive
- Activity (Mus musculus [23]): inactive

From ChEMBL document CHEMBL5506050, “Discovery of Oral AMP-Activated Protein Kinase Activators for Treating Hyperlipidemia” (J Med Chem, 2024)
